Data published in US10966426B2, “Herbicidal compositions comprising phenylpyrimidines” (BASF SE, priority 2016, dated 2021).
Values joined by “and” are separate entries in the source; they are usually repeats but may differ in a detail not shown here. Equal entries are not always repeated.

Assays:
Format in all cases: in vivo
Matricaria chamomilla = assay: greenhouse post-emergence treatment, MATCH
Procedure, shortened: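 Scale 0–100 damage rating (100 = complete destruction of above-ground parts, 0 = normal growth), read 2 to 4 weeks after post-emergence application of aqueous spray liquor to plants 3–15 cm tall.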

Setaria viridis = assay: greenhouse post-emergence treatment, SETVI
Procedure, shortened: (§1)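 Visual damage score 0–100 (0 = normal growth; 100 = no emergence/above-ground parts destroyed), read 2–4 wk post-treatment. Loamy sand, ~3.0% humus; seedlings grown in place or transplanted days before spraying; water as solvent; 10-25° C. or 20-35° C. per species. Combination expectations by Colby: E=X+Y−(X·Y/100).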

Ambrosia elatior [1] = assay: greenhouse post-emergence treatment, AMBEL
Procedure, shortened: (§2)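 Loamy sand, ~3.0% humus; species sown separately; treated at 3–15 cm height; 10% w/w EC diluted in water; 10-25° C./20-35° C. per species; 2–4 wk; visual 0–100 rating.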

Ambrosia elatior [2] = assay: greenhouse pre-emergence treatment, AMBEL
Procedure, shortened: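 Damage rated on 0 to 100 scale (0 = normal growth, 100 = no emergence or total above-ground kill) after 2-4 weeks at species-dependent 10-25° C or 20-35° C. Seeds sown per species in loamy sand, ~3.0% humus, treated right after sowing with aqueous spray of single actives or 10% emulsion-concentrate mixtures, then hooded; additive expectation by Colby.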

Alopecurus myosuroides = assay: greenhouse post-emergence treatment, ALOMY
Procedure, shortened: as §1

Poa annua = assay: greenhouse post-emergence treatment, POAAN
Procedure, shortened: as §2

[3] = 20 DAT, Ex. 26 solo 62.5 gai/ha
[4] = 20 DAT, AMBEL, Ex. 26 solo 62.5 gai/ha
[5] = 20 DAT, AMBEL, Ex. 26 solo 125 gai/ha
[6] = 20 DAT, AMBEL, Ex. 26 solo 250 gai/ha
[7] = AMBEL, Ex. 26 solo 62.5 gai/ha, 20 DAT
[8] = AMBEL, Ex. 26 solo 125 gai/ha, 20 DAT
[9] = Ex. 26 solo 250 gai/ha, 21 DAT, AMBEL

COC(=O)c1nc(C2CC2)ncc1-c1ccc(F)cc1Cl [Ex. 26]
% activity (Matricaria chamomilla; Ex. 26 solo 62.5 gai/ha, 20 DAT, MATCH (pyridate table)): 0%
% activity (Matricaria chamomilla; Ex. 26 solo 62.5 gai/ha, 20 DAT, MATCH (pyroxsulam table)): 0%
% activity (Matricaria chamomilla; Ex. 26 solo 125 gai/ha, 20 DAT, MATCH (pyridate table)): 0%
% activity (Matricaria chamomilla; Ex. 26 solo 125 gai/ha, 20 DAT, MATCH (pyroxsulam table)): 0%
% activity (Matricaria chamomilla; Ex. 26 solo 250 gai/ha, 20 DAT, MATCH (pyridate table)): 0%
% activity (Matricaria chamomilla; Ex. 26 solo 250 gai/ha, 20 DAT, MATCH (pyroxsulam table)): 30%
% activity (Matricaria chamomilla; Ex. 26 solo 250 gai/ha, 21 DAT, MATCH): 0%
% activity (Matricaria chamomilla; Ex. 26 solo, 125 gai/ha, 20 DAT, MATCH): 0%
% activity (Matricaria chamomilla; Ex. 26 solo, 250 gai/ha, 20 DAT, MATCH): 0%
% activity (Matricaria chamomilla; Ex. 26 solo, 250 gai/ha, 21 DAT, MATCH): 20%
% activity (Matricaria chamomilla; MATCH, 21 DAT, solo Ex. 26 62.5 gai/ha): 0%
% activity (Matricaria chamomilla; MATCH, Ex. 26 solo 62.5 gai/ha, 20 DAT): 0%
% activity (Setaria viridis; [3]): 0%
% activity (Setaria viridis; 21 DAT, Ex. 26 solo 125 gai/ha): 0%
% activity (Setaria viridis; 21 DAT, Ex. 26 solo 250 gai/ha): 0%
% activity (Setaria viridis; Ex. 26 solo 62.5 gai/ha, 20 DAT, SETVI (pyridate table)): 0%
% activity (Setaria viridis; Ex. 26 solo 62.5 gai/ha, 20 DAT, SETVI (pyroxsulam table)): 0%
% activity (Setaria viridis; Ex. 26 solo 125 gai/ha, 20 DAT, SETVI (pyridate table)): 20%
% activity (Setaria viridis; Ex. 26 solo 125 gai/ha, 20 DAT, SETVI (pyroxsulam table)): 0%
% activity (Setaria viridis; Ex. 26 solo 250 gai/ha, 20 DAT, SETVI (pyridate table)): 25%
% activity (Setaria viridis; Ex. 26 solo 250 gai/ha, 20 DAT, SETVI (pyroxsulam table)): 10%
% activity (Setaria viridis; Ex. 26 solo, 125 gai/ha, 21 DAT, SETVI): 10%
% activity (Setaria viridis; Ex. 26 solo, 250 gai/ha, 21 DAT, SETVI): 15%
% activity (Setaria viridis; SETVI, 21 DAT, solo Ex. 26 62.5 gai/ha): 10%
% activity (Setaria viridis; SETVI, 21 DAT, solo Ex. 26 125 gai/ha): 10%
% activity (Ambrosia elatior [1]; [4]): 0%
% activity (Ambrosia elatior [1]; [5]): 0%
% activity (Ambrosia elatior [1]; [6]): 40%
% activity (Ambrosia elatior [1]; [3]): 0%
% activity (Ambrosia elatior [1]; 20 DAT, Ex. 26 solo 125 gai/ha): 0%
% activity (Ambrosia elatior [1]; 20 DAT, Ex. 26 solo 250 gai/ha): 0%
% activity (Ambrosia elatior [1]; 21 DAT, Ex. 26 solo 250 gai/ha): 0%
% activity (Ambrosia elatior [1]; [7]): 0%
% activity (Ambrosia elatior [1]; [8]): 0%
% activity (Ambrosia elatior [1]; AMBEL, Ex. 26 solo 250 gai/ha, 20 DAT): 60%
% activity (Ambrosia elatior [1]; Ex. 26 solo 62.5 gai/ha, 20 DAT, AMBEL (pyridate table)): 0%
% activity (Ambrosia elatior [1]; Ex. 26 solo 62.5 gai/ha, 20 DAT, AMBEL (pyroxsulam table)): 0%
% activity (Ambrosia elatior [1]; Ex. 26 solo 62.5 gai/ha, 21 DAT, AMBEL): 5%
% activity (Ambrosia elatior [1]; Ex. 26 solo 125 gai/ha, 20 DAT, AMBEL (pyridate table)): 0%
% activity (Ambrosia elatior [1]; Ex. 26 solo 125 gai/ha, 20 DAT, AMBEL (pyroxsulam table)): 0%
% activity (Ambrosia elatior [1]; Ex. 26 solo 250 gai/ha, 20 DAT, AMBEL (pyroxsulam table)): 20%
% activity (Ambrosia elatior [1]; [9]): 0%
% activity (Ambrosia elatior [1]; Ex. 26 solo, 125 gai/ha, 21 DAT, AMBEL): 0%
% activity (Ambrosia elatior [1]; Ex. 26 solo, 250 gai/ha, 21 DAT, AMBEL): 20%
% activity (Ambrosia elatior [2]; 20 DAT, AMBEL, Ex. 26 solo 31.25 gai/ha): 0%
% activity (Ambrosia elatior [2]; [4]): 0%
% activity (Ambrosia elatior [2]; [5]): 0%
% activity (Ambrosia elatior [2]; [6]): 0%
% activity (Ambrosia elatior [2]; 20 DAT, Ex. 26 solo 31.25 gai/ha): 0%
% activity (Ambrosia elatior [2]; [3]): 0%
% activity (Ambrosia elatior [2]; 20 DAT, Ex. 26 solo 125 gai/ha): 0%
% activity (Ambrosia elatior [2]; 21 DAT, AMBEL, Ex. 26 solo 250 gai/ha): 0%
% activity (Ambrosia elatior [2]; AMBEL, 20 DAT, solo Ex. 26 62.5 gai/ha): 0%
% activity (Ambrosia elatior [2]; AMBEL, 20 DAT, solo Ex. 26 125 gai/ha): 0%
% activity (Ambrosia elatior [2]; AMBEL, Ex. 26 solo 31.25 gai/ha, 20 DAT): 0%
% activity (Ambrosia elatior [2]; [7]): 0%
% activity (Ambrosia elatior [2]; [8]): 0%
% activity (Ambrosia elatior [2]; [9]): 0%
% activity (Ambrosia elatior [2]; Ex. 26 solo, 31.25 gai/ha, 20 DAT, AMBEL): 0%
% activity (Ambrosia elatior [2]; Ex. 26 solo, 62.5 gai/ha, 20 DAT, AMBEL): 0%
% activity (Ambrosia elatior [2]; Ex. 26 solo, 125 gai/ha, 20 DAT, AMBEL): 0%
% activity (Alopecurus myosuroides; 20 DAT, ALOMY, Ex. 26 solo 62.5 gai/ha): 65%
% activity (Alopecurus myosuroides; 20 DAT, ALOMY, Ex. 26 solo 125 gai/ha): 75%
% activity (Alopecurus myosuroides; 20 DAT, ALOMY, Ex. 26 solo 250 gai/ha): 75%
% activity (Alopecurus myosuroides; 21 DAT, Ex. 26 solo 125 gai/ha): 65%
% activity (Alopecurus myosuroides; 21 DAT, Ex. 26 solo 250 gai/ha): 75%
% activity (Alopecurus myosuroides; ALOMY, Ex. 26 solo 125 gai/ha, 20 DAT): 75% and 70%
% activity (Alopecurus myosuroides; ALOMY, Ex. 26 solo 250 gai/ha, 20 DAT): 75%
% activity (Alopecurus myosuroides; Ex. 26 solo 62.5 gai/ha, 21 DAT, ALOMY): 40%
% activity (Alopecurus myosuroides; Ex. 26 solo 125 gai/ha, 20 DAT, ALOMY (pinoxaden table)): 73%
% activity (Alopecurus myosuroides; Ex. 26 solo 125 gai/ha, 20 DAT, ALOMY (pyridate table)): 70%
% activity (Alopecurus myosuroides; Ex. 26 solo 250 gai/ha, 20 DAT, ALOMY (pyridate table)): 75%
% activity (Poa annua; 20 DAT, Ex. 26 solo 250 gai/ha): 70%
% activity (Poa annua; 20 DAT, POAAN, Ex. 26 solo 125 gai/ha): 75% and 70%
% activity (Poa annua; 20 DAT, POAAN, Ex. 26 solo 250 gai/ha): 80%
% activity (Poa annua; 21 DAT, Ex. 26 solo 125 gai/ha): 65%
% activity (Poa annua; 21 DAT, Ex. 26 solo 250 gai/ha): 75%
% activity (Poa annua; Ex. 26 solo 62.5 gai/ha, 21 DAT, POAAN): 35%
% activity (Poa annua; Ex. 26 solo, 125 gai/ha, 20 DAT, POAAN): 40%
% activity (Poa annua; Ex. 26 solo, 125 gai/ha, 21 DAT, POAAN): 40%
% activity (Poa annua; Ex. 26 solo, 250 gai/ha, 20 DAT, POAAN): 70%
% activity (Poa annua; POAAN, 21 DAT, solo Ex. 26 62.5 gai/ha): 30%
% activity (Poa annua; POAAN, Ex. 26 solo 125 gai/ha, 20 DAT): 70%
% activity (Poa annua; POAAN, Ex. 26 solo 250 gai/ha, 20 DAT): 60%
